Source: patent US12661343B2, “Compositions containing nicotinamide and vitamin B6 and methods of using such compositions for promoting muscle growth” (SOCIETE DES PRODUITS NESTLE S.A., priority 2020, dated 2026)

Tested on: Human primary myoblasts
Assay: Myogenic amplification and commitment of muscle stem cells (Pax7/MyoD staining, image quantification)
Type: cell-based
Details: donors 1 and 2 pooled, dose response, 96 hours, normalized to total cell number, control DMSO 1%; for proportion of MyoD+ cells (differentiating), fold change compared to the control condition: FIG. 1B/2B
Procedure: Human Skeletal Muscle Myoblasts were purchased from Lonza (https://bioscience.lonza.com). These cells were isolated from the upper arm or leg muscle tissue of normal donors and used after the second passage. Several donors were tested to ensure cell viability and purity before selecting the final donors, which are a person (refer thereafter as Donor 1), a person (refer thereafter as Donor 2) and a person (refer thereafter as Donor 3). Human primary myoblasts were seeded in 384 well plates at a density of 1′000 cells per well in skeletal muscle growth medium (SKM-M, AMSbio). For treatment, compounds were directly added to the myoblast cultures 16 hours after initial plating. All cultures were then grown for 96 hours. Cells were stained for Pax7 and MyoD expression using antibodies directed against Pax7 and MyoD and counterstained with Hoechst 33342 to visualize cell nuclei. Pax7+ cells are defined as cells that express Pax7 regardless of MyoD expression. […] Image acquisition was performed using the ImageXpress (Molecular Devices) platform. Custom module analysis based on Multi-Wavelength Cell Scoring of the MetaXpress software was used for quantification. *, **, ***, **** indicates difference from the control, One-way ANOVA, with p<0.05, p<0.01, p<0.001, p<0.0001, respectively. Data are presented as Mean+/−SEM. Human primary myoblasts from different donors (donor 1, donor 2 or donor 3) were seeded in 384 well plates at a density of 1′000 cells per well in skeletal muscle growth medium (SKM-M, AMSbio). For treatment, compounds were directly added to the myoblast cultures 16 hours after initial plating. All cultures were then grown for 96 hours. Cells were stained for Pax7 and MyoD expression using antibodies directed against Pax7 and MyoD and counterstained with Hoechst 33342 to visualize cell nuclei. Pax7+ cells are defined as cells that express Pax7 regardless of MyoD expression. […] Image acquisition was performed using the ImageXpress (Molecular Devices) platform. Custom module analysis based on Multi-Wavelength Cell Scoring of the MetaXpress software was used for quantification. […]

Row | SMILES | proportion of Pax7+ cells (amplifying), fold change compared to the control condition (FIG. 1A/2A) | proportion of MyoD+ cells (differentiating), fold change compared to the control condition
1 | NC(=O)c1cccnc1 [Nicotinamide] | increasing the proportion of both amplifying (Pax7+) and differentiating (MyoD+) cells in a dose dependent manner | increasing the proportion of both amplifying (Pax7+) and differentiating (MyoD+) cells in a dose dependent manner
2 | Cc1ncc(CO)c(CO)c1O [Pyridoxine] |  | increasing the proportion of differentiating (MyoD+) cells in a dose dependent manner
